Experimental data as given in patent publication US20060222706A1 (priority 2005, published 2006).

Assay: small volume in vitro release in 50 ml 0.1N HCl
Format: physicochemical
Conditions: 37° C., 150 rpm
Description: The formulations were tested for their small volume in vitro release characteristics in 50 ml 0.1N HCl at 37° C. and 150 rpm using the following procedure: III. Instrumentation (or Equivalent) • a. Automated Dissolution System comprising of: • Hanson SR8 Plus Test Station • Hanson Auto Plus Maximiser System Controller • Hanson Auto Plus MultiFill Fraction Collector • b. […] Procedure • Place one weighed capsule in each vessel containing 0.1N HCl and immediately operate the apparatus for 30 min. • Unless otherwise specified, 3 ml samples are withdrawn from each vessel and immediately filtered through PTFE membranes at 15 and 30 min. IV.
The small volume was chosen as a model of the conditions in a fasted stomach.

dissolution under small volume model condition (in words): no dissolution at all
SMILES: CC(C)OC(=O)C(C)(C)Oc1ccc(C(=O)c2ccc(Cl)cc2)cc1 [Micronized Fenofibrate]
